{"source": "paper PMC7563863", "about": "“Quantification of Boron Compound Concentration for BNCT Using Positron Emission Tomography” (Cells, 2020)", "key": {"[1]": {"target": "T1, sodium-iodine symporter (NIS) in thyroids (Rattus norvegicus, UniProt Q63008)", "T1 construct": "It was injected into the tail veins of rats; from tissue; host or cells: thyroid (hyperplastic, perchlorate-treated) of living Wistar rats", "T1 sequence (Q63008 1-618)": "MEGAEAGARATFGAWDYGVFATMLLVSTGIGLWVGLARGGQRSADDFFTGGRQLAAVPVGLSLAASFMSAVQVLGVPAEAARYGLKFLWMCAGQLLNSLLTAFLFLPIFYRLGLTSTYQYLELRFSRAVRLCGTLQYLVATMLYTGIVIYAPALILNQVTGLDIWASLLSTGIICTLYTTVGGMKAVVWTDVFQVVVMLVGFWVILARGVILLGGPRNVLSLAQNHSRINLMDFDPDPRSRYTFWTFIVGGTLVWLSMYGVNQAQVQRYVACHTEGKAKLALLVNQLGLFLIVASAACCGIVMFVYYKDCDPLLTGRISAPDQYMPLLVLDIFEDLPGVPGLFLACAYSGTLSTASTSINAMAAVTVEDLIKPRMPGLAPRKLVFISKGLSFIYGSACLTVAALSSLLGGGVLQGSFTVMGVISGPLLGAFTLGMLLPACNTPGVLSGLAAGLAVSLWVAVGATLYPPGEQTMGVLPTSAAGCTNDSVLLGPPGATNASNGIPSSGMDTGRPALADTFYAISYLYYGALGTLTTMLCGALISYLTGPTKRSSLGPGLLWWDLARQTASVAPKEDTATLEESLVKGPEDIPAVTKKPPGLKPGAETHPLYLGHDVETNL", "experiment": "Dynamic [^18F]NaBF4 PET/CT of the hyperplastic thyroid, time-activity curve", "assay_type": "in vivo", "method": "Female Wistar rats, aged 16–17 weeks old and weighing 200–220 g at the study starting moment, were kept in pathogen-free cages at the animal facilities of the School of Medicine (University of Seville, Seville, Spain) under controlled laboratory conditions (temperature 20 ± 2 °C, humidity 40–50%, lighting regimen of 12 light/12 dark hours). Animals were fed a normal laboratory diet (Teklad diet, Envigo, Cambridgeshire, UK) and fresh tap water ad libitum. The study was approved by the Ethical Committee of the Faculty of Medicine, University of Seville. Animal handling was conducted following the Guide for the Care and Use of Laboratory Animals. Rats were divided into two equal groups: the control group and the treated group. Animals from the treated group received 1% potassium perchlorate (w/v) in the drinking water, ad libitum, for […]. All experiments were carried with the approval of the ethics committee of the University of Seville.\nPET imaging was carried out in a Mosaic microPET scanner (Philips, Andover, MA, USA) followed by a CT scan in NanoCT (Bioscan/Mediso, Budapest, Hungary). Briefly, animals were anesthetized with isoflurane. A catheter was placed in the tail vein. A radiotracer (41 MBq) was injected with a maximum limit of 5 mL/kg in a bolus injection. […]"}, "[2]": {"target": "T1, sodium-iodine symporter (NIS) in thyroids", "experiment": "Two-tissue compartment kinetic modeling of the tracer in the thyroid VOI (PMOD PKIN)", "assay_type": "in vivo", "settings": "two-tissue compartment model, hyperplastic thyroid", "excerpt": "The kinetic modeling of the tracer in VOIs was done using two tissue compartment models shown in Equation (1). Cp is the activity concentration of the tracer in the plasma, C1 and C2 are concentrations in two compartments, k are the kinetic constants, and t is time. The kinetic modeling was done in the PMOD module PKIN using full blood as the input function, with linear interpolation between experimental points taken from the dynamic image of the left ventricle of the heart.\n(1) dC2(t)/dt=k3C1(t)−k4C2(t)dC1(t)/dt=K1Cp(t)−(k2 + k3)C1(t) + k4C2(t)"}, "[3]": {"experiment": "Calculation of boron concentration in thyroid from PET activity concentration and production data", "assay_type": "in vivo, rat", "excerpt": "As injection solution of the [^18F]NaBF4 tracer contains the majority of unlabeled NaBF4; from the NaBF4 molar concentration in the synthesis solution, we could know the labeled to unlabeled tracer compound concentration ratio at the beginning of the PET study. […] The boron concentration is known only with the spatial resolution of the PET image, which in the Mosaic scanner case is about 2.3 mm. The microscopic details of the boron concentration were inferred from NIS immunofluorescence, assuming that the BF4^− concentration is only significant in NIS-containing cells.\nBriefly, at the radiotracer production stage, the mass of NaBF4, Milli-Q water, and activity and volume of the [^18F]F^- Milli-Q water solution arriving from the cyclotron are known. Correcting for ^18F decay during the production and time needed for injection, with the known volume and activity of the produced and injected [^18F]NaBF4 tracer, we can calculate the amount of NaBF4 left from the production stage in the tissue from the activity concentration expressed initially as maximum local value of standard uptake value (SUVmax), then recalculated to kBq/mL and, then, to the molar concentration of ^18F at the beginning of the PET study.\nTo calculate the boron concentration, we start from calculating the ^18F molar concentration in the product to be injected. At the end of synthesis (EOS, decay-corrected to PET study start), we received 4.3 GBq of [^18F]NaBF4 in 2 mL of saline. As the activity concentration A is A=N/τ , where N is the number of ^18F atoms and τ=t1/2/ln(2) , t1/2 of ^18F being 109.7 min expressed in seconds, and diluted in 25.9 mL of Milli-Q water, we obtained 33.9 nM of [^18F]NaBF4 at the EOS and 351 µM of unlabeled NaBF4. We can calculate the molar concentration in the hyperplasia maximum from the maximum of the curve in Figure 3: 2.3 MBq/mL. […] Dividing the calculated concentration of [^18F]NaBF4 36.8 pM by 9.7 × 10^−5, we receive, therefore, a 381 nM boron concentration, which is […] of the fraction of required 2 mM ^10B concentration for BNCT treatment."}, "[4]": {"target": "T1, sodium-iodine symporter (NIS) in thyroids", "parameters": "method as in PMID 20577737", "settings": "cited from earlier work"}, "[5]": {"experiment": "Estimated concentration in the blood after injection", "assay_type": "in vivo", "settings": "rat", "method": "The initial concentration of NaBF4 in the blood after injection of 110 mg/kg in the rat is about 16 mM, but as it can be seen from Figure 3, it is expected to drop fast to about 25% at 90 min—that is, to 4 mM. BPA is injected at doses of 500 mg/kg, which in rats, results in an initial concentration in the blood of 37 mM. The transporter of BPA is L-type amino acid transporter (LAT1), which for the most similar compound, phenylalanine has an IC50 of about 60 µM [20]. This is a […] of magnitude higher concentration in the blood for phenylalanine, and BPA still allows reaching therapeutic boron concentrations in the tumor."}, "[6]": {"system": "NIS", "parameters": "method as in PMID 21085047", "settings": "cited from earlier work"}, "[7]": {"system": "thyroid gland", "experiment": "[^18F]FDG PET/CT of the thyroid gland", "assay_type": "in vivo, rat", "method": "PET imaging was carried out in a Mosaic microPET scanner (Philips, Andover, MA, USA) followed by a CT scan in NanoCT (Bioscan/Mediso, Budapest, Hungary). Briefly, animals were anesthetized with isoflurane. A catheter was placed in the tail vein. A radiotracer (41 MBq) was injected with a maximum limit of 5 mL/kg in a bolus injection. In dynamic studies, this was done already in the PET scanner on a heated animal bed (Équipement Vétérinaire MINERVE, Esternay, France). For static studies, animals were awakened and let up for 45-min radiotracer uptake. Then, the animal was anesthetized again and placed in the heated bed of the PET scanner. The dynamic scans were of 90 min centered in the thyroids; the static ones were three beds of 10 cm longitudinal lengths starting from the head towards the tail. Each bed position was scanned for 15 min. CT scans were acquired in 45 kVp with 177 µA at 500 ms exposition and 240 projections per rotation.\nPET images were reconstructed using an iterative method with decay, scatter, and random corrections without attenuation correction. […] CT images were reconstructed using the filtered back-projection method with an exact cone-beam and with a Shepp Logan 98% filter, giving a 0.2 mm uniform pixel size. […]"}, "[8]": {"system": "L-type amino acid transporter (LAT1)", "parameters": "method as in PMID 30048132", "settings": "cited from earlier work"}}, "data": [{"molecule": "F[B-](F)(F)F.[Na+]", "note": "[[^18F]NaBF4]", "values": [{"measurement": "capture in bones", "setting": "[1]; PET", "result": "no capture in bones"}, {"measurement": "peak activity concentration in thyroid", "setting": "[1]; hyperplastic thyroid, about 17 min after injection", "result": 2.3, "unit": "MBq/mL"}, {"measurement": "Flux", "setting": "[2]", "result": 0.28}, {"measurement": "K1", "setting": "[2]", "result": 1.89}, {"measurement": "Kl/k2", "setting": "[2]", "result": 3.60}, {"measurement": "Vs (distribution volume of the specific binding)", "setting": "[2]", "result": 3.96}, {"measurement": "Vt (distribution volume)", "setting": "[2]", "result": 7.56}, {"measurement": "k2", "setting": "[2]", "result": 0.52}, {"measurement": "k3", "setting": "[2]", "result": 0.09}, {"measurement": "k3/k4 (nondisplaceable binding potential, BPND)", "setting": "[2]", "result": 1.1}, {"measurement": "k4", "setting": "[2]", "result": 0.08}, {"measurement": "molar concentration of [^18F]NaBF4 in thyroid at peak", "setting": "[3]; hyperplasia maximum, from 2.3 MBq/mL", "result": 36.8, "unit": "pM"}, {"measurement": "stability in vivo", "setting": "[4]", "result": "stable in vivo"}]}, {"molecule": "F[B-](F)(F)F.[Na+]", "note": "[NaBF4]", "values": [{"measurement": "fraction of the required 2 mM ^10B concentration reached", "setting": "[3]; 381 nM boron in hyperplastic thyroid", "result": "19 × 10^−5"}, {"measurement": "boron concentration in thyroid with hyperplasia", "setting": "[3]; at peak, after 53 nmol (21 µg/kg) NaBF4 injected", "result": 381, "unit": "nM"}, {"measurement": "concentration in the blood at 90 min", "setting": "[5]; 110 mg/kg, expected", "result": 4000, "unit": "µM"}, {"measurement": "concentration in the blood at 90 min as fraction of initial", "setting": "[5]; expected from Figure 3 blood curve", "result": "about 25%"}, {"measurement": "IC50", "setting": "[6]", "result": 1.6, "unit": "µM"}]}, {"molecule": "OC[C@H]1OC(O)[C@H]([18F])[C@@H](O)[C@@H]1O", "note": "(stereo partly drawn) [[^18F]FDG, [^18F]fluorodeoxyglucose]", "values": [{"measurement": "uptake in control and hyperplastic thyroid", "setting": "[7]; control thyroid and thyroid with hyperplasia", "result": "neither the control nor thyroid with hyperplasia show an abnormal uptake"}, {"measurement": "SUVmax in thyroid tumor", "setting": "[7]; thyroid tumor", "result": "two"}]}, {"molecule": "N[C@@H](Cc1ccccc1)C(=O)O", "note": "[phenylalanine]", "values": [{"measurement": "IC50", "setting": "[8]", "result": "~60", "unit": "µM"}]}]}
